Measurements published in patent US20140329797A1, “SUBSTITUTED OXADIAZOLYL PYRIDINONES AND OXADIAZOLYL PYRIDAZINONES AS HIF INHIBITORS” (Bayer Intellectual Property GmbH, priority 2011, published 2014).

System: HCT 116 cells transfected with a luciferase reporter under the control of an HIF-responsive sequence
Test: HIF-luciferase assay
Format: cell-based
Details: Homo sapiens; HCT 116 HIF-luciferase reporter cells, hypoxia chamber (1% O2), 24 h; in some cases means of up to four individual determinations
Procedure: B-1. HIF-Luciferase Assay
HCT 116 cells were transfected in a stable manner with a plasmid which contained a luciferase reporter under the control of an HIF-responsive sequence. These cells were sown in microtitre plates [20000 cells/cavity in RPMI 1640 medium with 10% foetal calf serum (FCS) and 100 μg/ml of hygromycin]. Incubation was carried out overnight under standard conditions (5% CO2, 21% O2, 37° C., moistened). The following morning the cells were incubated with various concentrations of the test substances (0-10 μmol/l) in a hypoxia chamber (1% O2). After 24 h, Bright Glo reagent (Promega, Wisconsin, USA) was added in accordance with the manufacturer's instructions, and after 5 min the luminescence was measured. Cells which were incubated under normoxia served as background controls.

SMILES | IC50
CC(C)(O)Cc1cccc(Cn2nc(-c3nc(-c4ccc(OC(F)(F)F)cc4)no3)ccc2=O)c1 [Example 90, 2-[3-(2-Hydroxy-2-methylpropyl)benzyl]-6-{3-[4-(trifluoromethoxy)phenyl]-1,2,4-oxadiazol-5-yl}pyridazin-3(2H)-one] | 6 nM
N#CC1CCN(c2cc(Cn3nc(-c4nc(-c5ccc(OC(F)(F)F)cc5)no4)ccc3=O)ccn2)CC1 [Example 94, 1-(4-{[6-oxo-3-{3-[4-(trifluoromethoxy)phenyl]-1,2,4-oxadiazol-5-yl}pyridazin-1(6H)-yl]methyl}pyridin-2-yl)piperidine-4-carbonitrile] | 20 nM
CC(C)(c1ccc(-c2noc(-c3ccc(=O)n(Cc4ccnc(N5CCC(C#N)CC5)c4)n3)n2)cc1)C(F)(F)F [Example 95, 1-(4-{[6-oxo-3-{3-[4-(1,1,1-trifluoro-2-methylpropan-2-yl)phenyl]-1,2,4-oxadiazol-5-yl}pyridazin-1(6H)-yl]methyl}pyridin-2-yl)piperidine-4-carbonitrile] | 40 nM
O=c1ccc(-c2nc(-c3ccc(OC(F)(F)F)cc3)no2)nn1Cc1ccnc(N2CCN(C3CC3)CC2)c1 [Example 96, 2-{[2-(4-Cyclopropylpiperazin-1-yl)pyridin-4-yl]methyl}-6-{3-[4-(trifluoromethoxy)phenyl]-1,2,4-oxadiazol-5-yl}pyridazin-3(2H)-one] | 1.5 nM
CC(C)(c1ccc(-c2noc(-c3ccc(=O)n(Cc4ccnc(N5CCN(C6CC6)CC5)c4)n3)n2)cc1)C(F)(F)F [Example 97, 2-{[2-(4-Cyclopropylpiperazin-1-yl)pyridin-4-yl]methyl}-6-{3-[4-(1,1,1-trifluoro-2-methylpropan-2-yl)phenyl]-1,2,4-oxadiazol-5-yl}pyridazin-3(2H)-one] | 3 nM
CNc1ccc(Cn2nc(-c3nc(-c4ccc(OC(F)(F)F)cc4)no3)ccc2=O)cn1 [Example 100, 2-{[6-(Methylamino)pyridin-3-yl]methyl}-6-{3-[4-(trifluoromethoxy)phenyl]-1,2,4-oxadiazol-5-yl}pyridazin-3(2H)-one] | 6 nM

Results, then the molecule that gave them:

IC50 | SMILES
5 nM | CC(=O)OC1(c2cccc(Cn3nc(-c4nc(-c5ccc(OC(F)(F)F)cc5)no4)ccc3=O)c2)CC1 [Example 89, 1-(3-{[6-oxo-3-{3-[4-(trifluoromethoxy)phenyl]-1,2,4-oxadiazol-5-yl}pyridazin-1(6H)-yl]methyl}phenyl)cyclopropyl acetate]
40 nM | CC(C)(O)Cc1cccc(Cn2nc(-c3nc(-c4ccc(C(C)(C)C(F)(F)F)cc4)no3)ccc2=O)c1 [Example 91, 2-[3-(2-Hydroxy-2-methylpropyl)benzyl]-6-{3-[4-(1,1,1-trifluoro-2-methylpropan-2-yl)phenyl]-1,2,4-oxadiazol-5-yl}pyridazin-3(2H)-one]
10 nM | O=c1ccc(-c2nc(-c3ccc(OC(F)(F)F)cc3)no2)nn1Cc1cccc(C2(CO)CC2)c1 [Example 92, 2-{3-[1-(Hydroxymethyl)cyclopropyl]benzyl}-6-{3-[4-(trifluoromethoxy)phenyl]-1,2,4-oxadiazol-5-yl}pyridazin-3(2H)-one]
25 nM | CC(C)(c1ccc(-c2noc(-c3ccc(=O)n(Cc4cccc(C5(CO)CC5)c4)n3)n2)cc1)C(F)(F)F [Example 93, 2-{3-[1-(Hydroxymethyl)cyclopropyl]benzyl}-6-{3-[4-(1,1,1-trifluoro-2-methylpropan-2-yl)phenyl]-1,2,4-oxadiazol-5-yl}pyridazin-3(2H)-one]
15 nM | CNc1ccc(Cn2nc(-c3nc(-c4ccc(C(C)(C)C(F)(F)F)cc4)no3)ccc2=O)cn1 [Example 101, 2-{[6-(Methylamino)pyridin-3-yl]methyl}-6-{3-[4-(1,1,1-trifluoro-2-methylpropan-2-yl)phenyl]-1,2,4-oxadiazol-5-yl}pyridazin-3(2H)-one]
